Reference: patent publication US9427455B2, “Use of the pat nanopeptide in the treatment of autoimmune diseases” (CLL PHARMA, priority 2008, dated 2016)

Legend:
Assay type in all cases: in vivo
[1] = system: arthritic rats of OFA (SD) strain; experiment: Arthritis induced by Freund's adjuvant (Mycobacterium butyricum) in the rat; settings: for volume of the leg: 5 times per week during 3 weeks, from Day 14 until Day 21, FIG. 4; for hypersensitivity measured by the plantar test: Day 16, equivalent to non-arthritic reference group, FIG. 6; for erythrocyte sedimentation rate (ESR): FIG. 7; for macroscopic clinical score: FIG. 5
Procedure: We used the model of arthritis induced by Freund' adjuvant as described in the article of Milan et al., J Neurosci 1986; 6: 899-906. The rats are administered with Mycobacterium butyricum develop usually a severe polyarthritis which resembles to that in human. Rats of OFA (SD) strain (Oncins France Strain A) weighing approximately 200 g received an […] of a 10 mg/ml Mycobacterium butyricum solution at the articulation of the right ankle. For all the measured parameters, the rats were divided into 5 groups (8 rats/group) in the following way: • reference group: the rats received a paraffin injection instead of the solution of Mycobacterium butyricum (no induced arthritis) then receive an intraperitoneal injection of saline solution; • arthritic group+injection of saline solution; • arthritic group+intraperitoneal injection of 3 mg/kg indomethacin; the indomethacin being a NSAID classically used as reference in this kind of test; • arthritic group+intraperitoneal injection of 0.4 […]; […] The products are administered 5 times per week during 3 weeks. At the beginning of the experimentation (day 0), one determines the initial values for the different parameters (volume of the leg, macroscopic clinical score, sedimentation test and hypersensitivity). During the experiment, several parameters are measured: • the volume of the leg (“paw latency duration”); • the globular sedimentation test (“Erythrocyte Sedimentation rate”); • the macroscopic score: • “0” means that no sign of arthritis was detected; • “1” means that a swelling or an inflammation was detected on a leg; • “2” means that a swelling or an inflammation was detected on two legs; • “3” means that a swelling or an inflammation was detected on at lest 3 legs; • “4” means that a swelling or an inflammation was detected on the 4 legs. • hypersensitivity according to the plantar test: carried out according to Yukinori Nagakura and al, Allodynia and hyperalgesia in adjuvant-induced arthritic rats: time course of progression and efficacy of analgesics, JPET 306: 490-497, 2003, or in Andersen M L and al “Evaluation of acute and chronic treatments with Harpagophytum procumbens one Freund's adjuvant-induced arthritis in rats”. J. Ethnopharmacol. 2004 April; 91 (2-3): 325-30; • the erythrocyte sedimentation rate (ESR): the increase in this one generally accompanies the clinical symptoms met in induced arthritis. The ESR is measured in the arthritic rats (at Day 21) 1 hour and 2 hours after the injection of PAT or indomethacin, according to the protocol of Mahajan S G, et al., Protective Effect of Ethanolic Extract of Seeds of Moringa will oleifera Lam. Against Inflammation Associated with Development of Arthritis in Rats. J. Immunotoxicol. 2007 January; 4 (1): 39-47.

[2] = system: C57BL/6J mice with colitis induced by TNBS; experiment: TNBS-induced experimental colitis in mice (animal weight, colon inflammation); settings: for effect on animal weight (weight loss induced by TNBS): FIG. 1
Procedure: The PAT nonapeptide was studied in animal model of experimental colitis. In mice, one of the clearly established IBD colitis models is the one in which the induction is performed by the use of trinitrobenzene sulphonic acid (TNBS). TNBS is a hapten which, when it is administered by intrarectal route, induced a severe colonic transmural inflammation; the induced effects present many similarities with those induced by Crohn's disease (Elson C O et al Experimental models of inflammatory bowel disease. Gastroenterology 2003; 10: 1344-67; Strober W et al., The immunology of mucosal models of inflammation. Annu Rev Immunol 2002; 20: 495-49).
(§1) Colitis is induced in C57BL/6J mice of 7-8 weeks old after TNBS administration per rectal route according to the protocol described by Sugimoto K. et al (Gastroenterology 2002: 123; 1912-1922). The administration is performed directly in the lumen of the colon (over a 3-4 cm length) by using a 1 ml-syringe and a polyethylene cannula (Intradermic PE-20, Becton Dickinson) of a 100 μl solution containing 2.5 mg of TNBS dissolved beforehand in 50 μl of ethanol. After the administration, the mice are maintained 30 seconds in vertical position.
The design of the study is the following: • one control batch of 5 mice treated by ethanol/PBS mixture (vol/vol): • one test batch of 10 mice to which TNBS is administered (2.5 mg in 50% ethanol); • one test batch of 10 mice to which TNBS and nonapeptide are administered with the amount of 1 μg/mouse; • one test batch of 10 mice to which TNBS and nonapeptide are administered with the amount of 5, μg/mouse; • one batch of 10 mice to which TNBS and nonapeptide are administered with the amount of 25 μg/mouse.
The PAT nonapeptide is administered by intraperitoneal route 30 minutes before the TNBS induction of colitis. Several mice (5 of each test batch; 2 of control batch) are sacrificed at day 1 after TNBS induction. The remaining mice (5 of each test batch; 3 of control batch) are sacrificed at day 3 after TNBS induction.
The animals are weighed every day until the sacrifice.
As soon as the animals are sacrificed, the colon is sampled and a macroscopic analysis is carried out.

IL-1β = experiment: Expression of IL-1β in colon by quantitative RT-PCR, TNBS colitis mice; settings: 25 μg of PAT; TNBS alone increases almost 50 fold; FIG. 3
Procedure: as §1, with “position. […]” for “position.”
(§2) The latter is carried out by denaturation with guanidine thiocyanate; cDNA synthesis is made starting from 1 ng of RNA using a kit (Euromedex). A quantitative PCR is carried out; the reaction is performed in a 25 μl final volume by using SYBR kit (Eurogentec). Stimulation rate is determined for each cytokine compared to reference cDNA which is that corresponding to […] ribosomal phosphoprotein.

IL-6 = experiment: Expression of IL-6 in colon by quantitative RT-PCR, TNBS colitis mice; settings: 25 μg of PAT per mouse; TNBS alone increases around 30 fold; FIG. 3
Procedure: as §1, with “position. […]” for “position.”
as §2

TNF-α = experiment: Expression of TNF-α in colon by quantitative RT-PCR, TNBS colitis mice; settings: PAT 25 μg/mouse; TNBS alone increases around 4 fold; FIG. 3
Procedure: as §1, with “position. […]” for “position.”
as §2

IL-10 = experiment: Expression of IL-10 in colon by quantitative RT-PCR, TNBS colitis mice; settings: PAT 25 μg/mouse before TNBS; not increased with TNBS alone; FIG. 3
Procedure: as §1, with “position. […]” for “position.”
as §2

COc1ccc2c(c1)c(CC(=O)O)c(C)n2C(=O)c1ccc(Cl)cc1 [indomethacin, reference compound]
volume of the leg ([1]; indomethacin 3 mg/kg i.p.): notable reduction of inflammation and of the volume of the leg
hypersensitivity measured by the plantar test ([1]; indomethacin 3 mg/kg i.p.): hypersensitivity is very reduced
erythrocyte sedimentation rate (ESR) ([1]; indomethacin 3 mg/kg i.p., Day 21): reduced in a very important way
macroscopic clinical score ([1]; indomethacin 3 mg/kg i.p., compared to arthritic rats given saline solution): significant reduction in the macroscopic score

H EAKSQGGSD-NH2 (H-EAKSQGGSD-NH2) [PAT nonapeptide]
effect on animal weight (weight loss induced by TNBS) ([2]; PAT 1 μg/mouse i.p. 30 minutes before TNBS): do not show a significant effect
effect on animal weight (weight loss induced by TNBS) ([2]; PAT 5 μg/mouse i.p. 30 minutes before TNBS): do not show a significant effect
effect on animal weight (weight loss induced by TNBS) ([2]; PAT 25 μg/mouse i.p. 30 minutes before TNBS): allows to limit this weight loss
colon length, on average ([2]; TNBS-PAT treated mice, control mice 7 cm, TNBS-treated mice 5 cm): 6.5 cm
colon inflammation caused by TNBS rectal injection (macroscopic analysis) ([2]; i.p. 30 minutes before TNBS, dose dependant, maximal effect at 25 μg/mouse, FIG. 2): reduce to a significant extent inflammation
IL-1β cytokine expression (IL-1β): decreases to a significant extent
IL-6 expression (IL-6): decreases to a significant extent
TNF-α expression (TNF-α): the increase is notably reduced
increase of IL-10 anti-inflammatory cytokine level (IL-10): more than 3 fold
progression of arthritis ([1]; PAT 0.4 μg/kg (i.p), leg, peripheral hypersensitivity and ESR): reduce very significantly the progression of arthritis
efficacy compared with indomethacin 3 mg/kg ([1]; PAT 0.4 μg/kg (i.p.), a dose 7500 fold lower than indomethacin): at least a similar efficacy
volume of the leg ([1]; PAT 0.4 μg/kg i.p.): notable reduction of inflammation and of the volume of the leg
hypersensitivity measured by the plantar test ([1]; PAT 0.4 μg/kg i.p.): hypersensitivity is very reduced
erythrocyte sedimentation rate (ESR) ([1]; PAT 0.4 μg/kg i.p., Day 21, 1 hour after the injection, compared to indomethacin group, very similar to reference rats): more reduced ESR
macroscopic clinical score ([1]; PAT 0.4 μg/kg i.p., compared to arthritic rats given saline solution): significant reduction in the macroscopic score
volume of the leg ([1]; PAT 4 μg/kg i.p.): notable reduction of inflammation and of the volume of the leg
hypersensitivity measured by the plantar test ([1]; PAT 4 μg/kg i.p.): hypersensitivity is very reduced
erythrocyte sedimentation rate (ESR) ([1]; PAT 4 μg/kg i.p., Day 21): did not have a significant effect on the reduction of ESR
macroscopic clinical score ([1]; PAT 4 μg/kg i.p., compared with 0.4 μg/kg): shows less effects
